What was measured:
[1] = Hair elongation percentage test; conditions: for % Increase in elongation percentage relative to control: control 100% DI water
Procedure: (§1) Hair tensile strength can be measured according to the following general method. “Test Compound” can be any compound described herein. • 1. Collect about 3 hair strands from tress; • 2. Clamp both ends of a single hair strand and pull taut; • 3. Line up ruler with hair strand and cut a 2.75 cm section; • 4. Repeat steps 2-3 until 30 segments are produced; • 5. Create a specific w/w % solution of deionized water and Test Compound (e.g., Compound (1)) in 50 ml beaker; • 6. Saturate the hair for a specific amount of time in the solution, then remove and dry for 30 minutes; • 7. Using a 4 decimal precision balance, weigh all hairs at once and calculate the average; • 8. Insert hair into the digital force gauge; • 9. Separate the two clamps until the hair has broken into two separate pieces; and • 10. Note the maximum force required to break the hair as well as the distance the digital force gauge has moved.
(§2) Control experiments can also be conducted according to the procedure described above, for example by omitting Test Compound from the solution or replacing Test Compound with compound for comparison (e.g., glycolic acid).

[2] = Hair tensile strength test (digital force gauge); conditions: for % Increase in tensile strength relative to control: control 100% DI water
Procedure: as §1, §2

[3] = Elongation of bleached hair at break stress (Formulation 1); conditions: 5 w/w % solution in DI water
Procedure: A combination formulation (Formulation 1) comprising Compound (1) and glycolic acid as an aqueous mixture was tested. Formulation 1 comprises a 1:1 ratio (by weight) of Compound (1) to glycolic acid. To prepare Formulation 1, a mixture containing 50 w/w % Compound (1) and 50 w/w % glycolic acid (crystalline) was prepared (Mixture A). Mixture A was diluted with deionized (DI) water (aqua) until the solution was 5 w/wt % Mixture A.
Formulation 1 was independently analyzed to determine whether elongation of bleached hair at break stress increased compared to both control and glycolic acid solutions. The glycolic acid solution was a 5 w/w % glycolic acid solution in DI water. The control was DI water alone.

[4] = 1 w/w % solution in deionized water
[5] = 2.5 w/w % solution in deionized water

| SMILES | Elongation % [1, 4] | % Increase in elongation percentage relative to control ([1]; 1 w/w % solution) | Elongation % [1, 5] | Elongation percentage of hair compared to glycolic acid (in words) ([1]; 2.5 w/w % solution vs 2.5 w/w % glycolic acid, FIG. 4) | % Increase in elongation percentage relative to control ([1]; 2.5 w/w % solution) | Elongation percentage of hair relative to control (in words) ([1]; control hair treated 100% DI water, FIG. 3) | Tensile strength (Gf/Denier) [2, 4] | % Increase in tensile strength relative to control ([2]; 1 w/w % solution) | Tensile strength (Gf/Denier) [2, 5] | Tensile strength of hair compared to glycolic acid (in words) ([2]; 2.5 w/w % solution vs 2.5 w/w % glycolic acid, FIG. 2) | % Increase in tensile strength relative to control ([2]; 2.5 w/w % solution) | Tensile strength of hair relative to control (in words) ([2]; control hair treated 100% DI water, FIG. 1) | Mean Elongation % [3] | Difference from Control (%) ([3]; control DI water) |
| --- | --- | --- | --- | --- | --- | --- | --- | --- | --- | --- | --- | --- | --- | --- |
| N[C@@H](CO)C(=O)OCC(=O)O [Compound (1)] | 25.4% | 0.67% | 29.9% | significantly increases elongation percentage of hair | 18.51% | increases elongation percentage of hair | 1.210 gf/denier | 16.9% | 1.490 gf/denier | significantly increases tensile strength of hair as compared to glycolic acid | 43.9% | significantly increases tensile strength of hair, relative to control |  |  |
| O=C(O)CO [Glycolic Acid, glycolic acid, reference compound] |  |  | 26.71% |  | 5.87% |  |  |  | 1.219 gf/denier |  | 17.8% |  | 55.3% | 7.38% |
